From PubChem BioAssay (NCI)
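Protocol summary: plate cells (96-well), add compound at 5 concentrations, incubate 48 h, interpolate endpoints linearly. GI50 marks 50% less growth. TGI marks complete inhibition of growth.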

Key:
Test in all cases: NCI tumour cell line growth inhibition, 48 h
[1] = tested on: 786-0 renal
[2] = tested on: A498 renal
[3] = tested on: A549 NSCLC
[4] = tested on: ACHN renal
[5] = tested on: BT-549 breast
[6] = tested on: CAKI-1 renal
[7] = tested on: CCRF-CEM leukemia
[8] = tested on: COLO 205 colon
[9] = tested on: DU-145 prostate
[10] = tested on: EKVX NSCLC
[11] = tested on: HCC-2998 colon
[12] = tested on: HCT-116 colon
[13] = tested on: HCT-15 colon
[14] = tested on: HL-60(TB) leukemia
[15] = tested on: HOP-62 NSCLC
[16] = tested on: HOP-92 NSCLC
[17] = tested on: HS 578T breast
[18] = tested on: HT29 colon
[19] = tested on: IGROV1 ovarian
[20] = tested on: K-562 leukemia
[21] = tested on: KM12 colon
[22] = tested on: LOX IMVI melanoma
[23] = tested on: M14 melanoma
[24] = tested on: MALME-3M melanoma
[25] = tested on: MCF7 breast
[26] = tested on: MDA-MB-231 breast
[27] = tested on: MOLT-4 leukemia

`COc1cc(/C=C\c2cc(OC)c(OC)c(OC)c2)cc(NS(=O)(=O)c2cccc(Cl)c2)c1OC` was tested. Which GI50 [1] did it give?
The GI50 was 0.0601 µM.

What about the TGI [1] of the same molecule?
Its TGI is over 100 µM.

And the GI50 [2]?
Its GI50 is 0.0218 µM.

And the TGI [2]?
The TGI was 0.0798 µM.

And the GI50 [3]?
Its GI50 is 0.264 µM.

And the TGI [3]?
Its TGI is over 100 µM.

What about the GI50 [4] of the same molecule?
The GI50 was 0.109 µM.

And the TGI [4]?
The TGI was over 100 µM.

And the GI50 [5]?
Its GI50 is 0.0338 µM.

And the TGI [5]?
Its TGI is 2.46 µM.

What about the GI50 [6] of the same molecule?
Its GI50 is 0.0527 µM.

What about the TGI [6] of the same molecule?
Its TGI is 27.8 µM.

And the GI50 [7]?
The GI50 was 0.0492 µM.

And the TGI [7]?
The TGI was over 100 µM.

And the GI50 [8]?
The GI50 was 0.261 µM.

And the TGI [8]?
Its TGI is 0.851 µM.

What about the GI50 [9] of the same molecule?
The GI50 was 0.0676 µM.

What about the TGI [9] of the same molecule?
The TGI was over 100 µM.

And the GI50 [10]?
The GI50 was 0.264 µM.

And the TGI [10]?
The TGI was over 100 µM.

What about the GI50 [11] of the same molecule?
The GI50 was 0.313 µM.

What about the TGI [11] of the same molecule?
The TGI was 60.6 µM.

What about the GI50 [12] of the same molecule?
The GI50 was 0.0368 µM.

What about the TGI [12] of the same molecule?
The TGI was over 100 µM.

And the GI50 [13]?
The GI50 was 0.146 µM.

What about the TGI [13] of the same molecule?
Its TGI is over 100 µM.

And the GI50 [14]?
Its GI50 is 0.032 µM.

And the TGI [14]?
Its TGI is over 100 µM.

What about the GI50 [15] of the same molecule?
Its GI50 is 3.16 µM.

What about the TGI [15] of the same molecule?
The TGI was over 100 µM.

And the GI50 [16]?
The GI50 was 0.0715 µM.

And the TGI [16]?
Its TGI is over 100 µM.

And the GI50 [17]?
The GI50 was 0.0795 µM.

What about the TGI [17] of the same molecule?
The TGI was over 100 µM.

What about the GI50 [18] of the same molecule?
Its GI50 is 0.0441 µM.

What about the TGI [18] of the same molecule?
Its TGI is over 100 µM.

And the GI50 [19]?
The GI50 was 0.0887 µM.

What about the TGI [19] of the same molecule?
The TGI was over 100 µM.

And the GI50 [20]?
The GI50 was 0.0383 µM.

And the TGI [20]?
The TGI was over 100 µM.

And the GI50 [21]?
The GI50 was 0.0437 µM.

What about the TGI [21] of the same molecule?
The TGI was over 100 µM.

What about the GI50 [22] of the same molecule?
The GI50 was 0.0574 µM.

And the TGI [22]?
Its TGI is over 100 µM.

And the GI50 [23]?
Its GI50 is 0.0344 µM.

What about the TGI [23] of the same molecule?
Its TGI is over 100 µM.

And the GI50 [24]?
The GI50 was 20 µM.

And the TGI [24]?
The TGI was over 100 µM.

And the GI50 [25]?
Its GI50 is 0.0533 µM.

And the TGI [25]?
Its TGI is over 100 µM.

And the GI50 [26]?
Its GI50 is 0.259 µM.

And the TGI [26]?
The TGI was over 100 µM.

And the GI50 [27]?
The GI50 was 0.0456 µM.

What about the TGI [27] of the same molecule?
Its TGI is over 100 µM.
